Measured values published in US20110152207A1, “USE OF VITAMIN D GLYCOSIDES AND SULFATES FOR TREATMENT OF DISEASE” (priority 2009, published 2011).
Marks after values point to notes of the source that are not given here.

Experiments:
[1] = test system: DSS-induced inflammation of the lower colon; test: Dextran sodium sulfate (DSS) mouse model of IBD; type: in vivo; details: DSS mice
From the text: (§1) In this example, β-gluc-1,25-D3 compounds, alone or in combination with 25-β-glucuronide-25-hydroxyvitamin D3 compounds (hereinafter β-gluc-25-D3) were incorporated into the diet of mice and compared to equimolar 1,25-D3 with respect to therapeutic effects on IBD and induction of calcemia. A standard mouse model of IBD comprising administering dextran sodium sulfate (DSS) to induce inflammation of the lower colon was used to study these effects. Vitamin D treatments were first initiated for 4 days. After 4 days, mice were fed DSS-water for 7 days, allowed one day to recover, and sacrificed. Colon length, plasma calcium, fecal blood score, and body weight were assayed. Colon length is a standard marker of intestinal inflammation in the literature, with shortened colon length being an indicator of inflammation. A 1-cm section of the mid-colon was removed, fixed in formalin, and stained with hematoxylin & eosin for microscopic histopathologic evaluation by a veterinary pathologist blinded to the treatments. Each tissue section received a score from 0 to 4 reflecting absence of lesion to severe, extensive lesion for each of three criteria: (1) the degree of erosion/ulceration of colon mucosa; (2) the degree of infiltration of the tissues by inflammatory cells; and (3) the degree of submucosal edema. The sum of the score of each of these criteria constitutes the histopathological score for the tissue with a zero score representing normal tissue based on all criteria, and the worst possible outcome being a score of 12.

[2] = Plasma calcium in the DSS mouse model of IBD; type: in vivo; details: DSS mice, 5000 ng/day in diet
From the text: as §1

[3] = Hypercalcemic effect: plasma calcium in rats under continuous subcutaneous infusion; type: in vivo; details: for Plasma Calcium Mean ± SD: 12th day, in mg/dL (unit assumed)
Method: The pumps were filled aseptically with the appropriate dose of drug dissolved in propylene glycol. The pumps were surgically implanted under the skin on the dorsal neck and shoulder area aseptically. On the 12th day of infusion, rats were deeply anesthetized (isofluorane inhalation) and blood was collected by cardiac puncture for plasma calcium determination. The plasma calcium levels were determined by standard methods.

[4] = Plasma 1,25-D3 concentration in mice after a single oral dose (RIA)
[5] = test system: β-glucuronidase activity, duodenum lumen contents; test: β-glucuronidase cleavage in duodenum lumen contents, free 1,25-D3 by RIA; type: in vitro ADME, rats; details: 150 pg added
Method: (§3) The proximal 25 cm of duodenum/jejunum, the caudal 12 cm of ileum, and the cranial 12 cm of colon were removed. The contents from the lumen of each section were flushed with 3 ml water, collected, and pooled. Three-ml aliquots of intestinal contents were placed into tubes. To the tubes, either 2100 pg (3.53 pmoles) β-gluc-1,25-D3 was added and incubated at 37° C. for 0, 1, 3, or 6 hrs, or 150 pg (0.36 pmoles) of 1,25-D3 was added and incubated for 0 or 6 hrs. […] Acetonitrile (3 ml) was added to each tube after incubation to end all enzymatic activity, after which the 1,25-D3 was extracted. Tritiated 1,25-D3 was added to each tube to assess extraction efficiency. The preparations were cleaned by HPLC, and the samples were analyzed for 1,25-D3 content by RIA (Heartland Assays, Ames, Iowa) (Hollis et al., J. Steroid Biochem. Mol. Biol. 2007 103(3-5):473-6).

DU-145 cells = test: DU-145 cell proliferation (CELLTITER BLUE); type: cell-based, human; details: 4 days, control = 100
Method: LNCaP cells (ATCC # CRL-1740) are malignant prostate cancer cells originally obtained from a lymph node of a person whose prostatic cancer had metastasized to the lymph node. LNCaP cells were grown in tissue culture using RPMI-1640 media with 10% fetal bovine serum. Wells of two 48-well tissue culture plates were seeded with 5000 LNCaP cells/well. […] Half the media was replaced with fresh media with treatments on the third day of the treatment period. By day 6 of treatment, wells of control untreated cells were approximately 60% confluent. The live cell numbers in each well at the end of treatment were assessed using the “CELLTITER BLUE”-brand assay kit (Promega Corp., Madison, Wis.). The assay is based on the ability of living cells to convert a redox dye (resazurin) into a fluorescent end product (resorufin). […] A similar study was performed using a second human-derived prostatic cancer cell line known as DU-145 (ATCC# HTB-81). […] Exp. Med. Biol. 1995 375:53-63). The DU-145 cells were propagated in Eagle's Minimum Essential Medium with 10% fetal bovine serum. The cells were treated in culture for just 4 days, with half the media replaced with fresh media on day 3 of treatment. Cells were 40% confluent at the end of treatment.

[6] = test system: β-glucuronidase activity, ileum lumen contents; test: β-glucuronidase cleavage in ileum lumen contents, free 1,25-D3 by RIA; type: in vitro ADME, rats; details: 150 pg added
Method: as §3

LNCaP cells = test: LNCaP cell proliferation (CELLTITER BLUE); type: cell-based, human; details: six days, control = 100
Method: LNCaP cells (ATCC # CRL-1740) are malignant prostate cancer cells originally obtained from a lymph node of a person whose prostatic cancer had metastasized to the lymph node. LNCaP cells were grown in tissue culture using RPMI-1640 media with 10% fetal bovine serum. Wells of two 48-well tissue culture plates were seeded with 5000 LNCaP cells/well. […] Half the media was replaced with fresh media with treatments on the third day of the treatment period. By day 6 of treatment, wells of control untreated cells were approximately 60% confluent. The live cell numbers in each well at the end of treatment were assessed using the “CELLTITER BLUE”-brand assay kit (Promega Corp., Madison, Wis.). The assay is based on the ability of living cells to convert a redox dye (resazurin) into a fluorescent end product (resorufin).

Cyp24 [7] = test: Cyp24 mRNA expression in colon of mice after a single oral dose; type: in vivo; details: 6 hrs
Method: (§2) Mice were decapitated 6 hrs later following light anesthesia under inhaled halothane. […] Tissue samples were flushed with ice-cold phosphate-buffered saline and immediately homogenized in 1 ml of TRIzol® reagent (Invitrogen Corp., Carlsbad, Calif.). Samples were then kept frozen at −86° C. prior to processing for RNA. For processing RNA, each TRIzol® homogenate was thawed at room temperature and 500 μl placed in a clean microfuge tube, mixed thoroughly with 100 μl chloroform for 15 sec and then centrifuged at 12,000×g for 15 min at 4° C. The upper aqueous phase was removed and mixed with 0.93 volumes of 75% EtOH. The mixture was then applied to an RNeasy spin column (Qiagen Inc., Germantown, Md.) and processed as described by the manufacturer with the exception that an additional wash with 2M NaCl/2 mM EDTA (pH 4.0) was included (Das et al. J Vet Diagn Invest. 2009; 21:771-778). RNA was eluted in 50 μl of water and the concentration obtained by UV spectrometry. One microgram of RNA was then used as a template for production of cDNA in a 20-μl reaction volume using random hexamers and Superscript III as described by the manufacturer (Invitrogen, Carlsbad, Calif.). Afterwards, samples were diluted to 100 μl final volume with TE buffer and stored at −20° C. prior to PCR analysis. Quantitative real-time RT-PCR was performed using a Stratagene Mx3005p cycler (Stratagene, La Jolla, Calif.) and PerfeCTa® SYBR® Green FastMix®, ROX reagent (Quanta Biosciences, Gaithersburg, Md.). Amplification of target cDNAs was accomplished with the following primers: Aliquots (8.3 ng) of cDNA were amplified under the following conditions: 95° C. for 30 sec, followed by 45 cycles of 95° C. for 1 sec and 57° C. for 30 sec. […] Oligonucleotides were obtained from Integrated DNA Technologies (Coralville, Iowa).

intestinal inflammation = details: Froicu et al., cited from earlier work
Cyp24 [8] = test: Cyp24 mRNA expression in duodenum of mice after a single oral dose; type: in vivo; details: for Cyp24 expression in the duodenum, induction over control mice: 24 pmol per os
Method: as §2

[9] = calcitriol = 1; cited from earlier work

25-β-glucuronide-25-hydroxyvitamin D3 [β-gluc-25-D3]
Histopathology score (0-12) ([1]; 5000 ng/day): 8.22 ± 0.72
effect on IBD by itself ([1]; 5000 ng/day): essentially ineffective by itself
Colon Length ([1]; 5000 ng/day in diet): 5.50 ± 0.20 cm
Final Body Weight ([1]; 5000 ng/day in diet): 21.16 ± 0.53 g
Fecal Blood Score ([1]; 5000 ng/day, scale 0-3): 1.05 ± 0.34
Plasma Calcium [2]: 8.68 ± 0.27^d mg/dl

C=C1/C(=C\C=C2/CCC[C@]3(C)[C@@H]([C@H](C)CCCC(C)(C)O)CC[C@@H]23)C[C@@H](O)C[C@@H]1O [1,25-D3, 1,25-dihydroxyvitamin D3, reference compound]
Plasma Calcium Mean ± SD ([3]; 10 ng/day continuous s.c. infusion): 10.41 ± 0.27
Plasma Calcium Mean ± SD ([3]; 15 ng/day continuous s.c. infusion): 10.78 ± 0.26
lowest dose inducing a statistically significant increase in plasma calcium levels ([3]; continuous s.c. infusion): 15 ng/day
Significantly greater than control? Duncan's Multiple Range Test ([3]; plasma calcium, 15 ng/day): Yes
plasma 1,25-D3 concentration ([4]; 6 pmol per os, 6 hr time point): not significantly increased
peak plasma 1,25-D3, fold over control mouse plasma 1,25-D3 ([4]; 24 pmol per os): ~14 fold
peak plasma concentration of 1,25-D3 ([4]; 24 pmol per os): 1280 pg/mL
time of peak plasma 1,25-D3 concentration ([4]; 24 pmol per os): 1 h
plasma 1,25-D3 concentration ([4]; 24 pmol per os, 24 hrs after treatment): slightly below the concentration observed in control animals
Measured Free 1,25-dihydroxy vitamin D ([5]; 0 hrs incubation, 37° C.): 96 pg
Measured Free 1,25-dihydroxy vitamin D ([5]; 6 hrs incubation): 117 pg
Colon Length ([1]; 10 ng/day in diet): 5.52 ± 0.20 cm
Final Body Weight ([1]; 10 ng/day in diet): 21.39 ± 0.82 g
Fecal Blood Score ([1]; 10 ng/day, 0 = no blood to 3 = multiple blood spots): 0.33 ± 0.12^c
Histopathology score (0-12) ([1]; 10 ng/day, 0 = no lesions, 12 = severe): 7.44 ± 0.50
Histopathology score (0-12) ([1]; 50 ng/day): 5.89 ± 0.54^c
histopathological scores among the effective treatments ([1]; 50 ng/day): numerically the best
improving inflammation ([1]; 50 ng/day): less effective than the 70-ng/day β-gluc-1,25-D3 plus 5000 ng/day β-gluc-25-D3 combination treatment
Colon Length ([1]; 50 ng/day in diet): 5.74 ± 0.17 cm
Final Body Weight ([1]; 50 ng/day in diet): 20.82 ± 0.43 g
Fecal Blood Score ([1]; 50 ng/day, scale 0-3): 0.22 ± 0.12^c
Proliferation index (Mean ± SEM) (DU-145 cells; DU-145, 20 nM): 94.7 ± 1.7
Proliferation index (Mean ± SEM) (DU-145 cells; DU-145, 100 nM): 89.3 ± 2.4
Measured Free 1,25-dihydroxy vitamin D ([6]; 0 hrs incubation): 129 pg
Measured Free 1,25-dihydroxy vitamin D ([6]; 6 hrs incubation): 128 pg
Proliferation index (Mean ± SEM) (LNCaP cells; 20 nM): 69.7 ± 8.4
Proliferation index (Mean ± SEM) (LNCaP cells; 100 nM): 63.8 ± 7.3
increase in Cyp24 in the colon over control mice (Cyp24 [7]; 24 pmol per os): about 5 fold
increase in Cyp24 expression in the colon (Cyp24 [7]; 48 pmol per os, relative to untreated mice): ~4.8±4 fold
hypercalcemia at the effective dose (intestinal inflammation; 50 ng): results in hypercalcemia
dose required to improve intestinal inflammation (intestinal inflammation; mouse model of inflammatory disease): 50 ng
Cyp24 expression in the duodenum, induction over control mice (Cyp24 [8]; 1 hour): 350 fold
Cyp24 expression in the duodenum, induction over control mice (Cyp24 [8]; 3 hours): 1600 fold
Cyp24 expression in the duodenum, induction over control mice (Cyp24 [8]; 6 hours): more than 2500 fold
induction of Cyp24 gene expression in the duodenum (Cyp24 [8]; 48 pmol per os, 6 hrs): > 1000 fold

C=C1/C(=C\C=C2/CCC[C@]3(C)[C@@H]([C@H](C)/C=C/[C@@H](O)C4CC4)CC[C@@H]23)C[C@@H](O)CC1O (stereo partly drawn) [calcipotriol]
calcemic index [9]: about 0.01
